From patent US6358984B1, “2,4-dioxopyrrolidine and 2,4-dioxotetrahydrofuran derivatives and medicines containing the same as the active ingredient” (Lead Chemical Co., Ltd., priority 1996, dated 2002) come the findings set out here.

Where two headings read alike, the source gives them in different places.

The test system of data set [1] is hypertension caused by angiotensin II. Briefly: Inhibition effect in the hypertension caused by angiotensin II using rats. The data set is classed as in vivo, rat. The settings on record: Rattus norvegicus, iv, i. v., male SD rats, angiotensin II 100 ng/kg. The protocol: Male SD rats (age; 11 weeks; 310 to 330 g) Were used, and indwelling cannula were placed in the femoral aorta and the vena cava, under anesthesia with inactin. The arterial cannula was connected to a pressure transducer to record the blood pressure via a carrier amplifier (AP-601G Japan Photoelectronics) using a polygraph system (RM-6000 Japan Photoelectronics). Prior to tests using the test compounds, 100 ng/kg-equivalent angiotensin II (50 μl of serum solution from the rat) was administered using a regular-pulse cannula to check the hypertensive action. Then, 30 minutes later, a 1 mg/kg-equivalent test compound (50 μl of serum solution from the rat) was administered using the regular-pulse cannula, and similar administration of angiotensin II was performed 5 and 60 minutes later to check the corresponding hypertensive action. The hypertensive effect resulting from the administration of only angiotensin II was taken as a reference value of 100% to determine the antihypertensive rates of the test compounds.

The next data set addresses T1, angiotensin II receptor (Oryctolagus cuniculus, UniProt P34976).
T1 construct: fraction of angiotensin II receptor membrane ([…]) prepared from rabbit adrenal gland; from tissue; host or cells: rabbit adrenal gland membrane fraction
T1 sequence (P34976 1-359): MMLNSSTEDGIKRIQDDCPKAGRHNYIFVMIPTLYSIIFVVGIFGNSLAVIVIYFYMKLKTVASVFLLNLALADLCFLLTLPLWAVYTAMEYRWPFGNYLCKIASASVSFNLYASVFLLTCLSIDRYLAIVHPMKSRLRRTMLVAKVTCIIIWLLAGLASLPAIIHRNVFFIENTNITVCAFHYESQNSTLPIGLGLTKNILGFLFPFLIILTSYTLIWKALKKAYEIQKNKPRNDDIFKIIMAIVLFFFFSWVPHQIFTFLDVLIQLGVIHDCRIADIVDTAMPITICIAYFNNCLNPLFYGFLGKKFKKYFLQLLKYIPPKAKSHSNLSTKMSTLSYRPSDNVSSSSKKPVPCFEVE
Briefly: Binding inhibition of 3H labeled angiotensin II to angiotensin II receptor membrane fraction. More on the design: species or system rabbit. The settings on record: for IC50: rabbit adrenal gland membrane, 3H labeled angiotensin II 10^-9M, read-out: Receptor binding inhibition effect IC50. The protocol:
The method of Cox et. al (Biochemical Pharmacology 33, 4057-4064 (1984) was modified to conduct angiotensin II receptor binding inhibition experiments. The present compounds (10^−5M to 10^−9M) and ^3H labeled angiotensin II (10^−9M) were added to a fraction of angiotensin II receptor membrane ([…]) prepared from rabbit adrenal gland and were allowed to react in a 20 mM Tris HCl buffer (pH: 7.0) containing 120 mM NaCl, 5 mM EDTA, 0.1 mM PMSF, and 0.2% BSA at 30° C. for 20 minutes so that the final volume was 540 μl. Then, the reaction mixture was quickly passed through a filter (whatman GF/B), and the filter was then rinsed three times in 4 ml of the buffer cooled in ice. Then, the radioactivity of receptor binding ^3H labeled angiotensin II captured on the filter was measured using a liquid scintillation counter. The angiotensin II receptor binding inhibition activity of the present compounds was evaluated based on the concentration (IC 50) required to replace 50% of the total amount of specifically binding ^3H labeled angiotensin II.

The subject of a further data set is male ICR mice. Briefly: Acute toxicity tests using male ICR mice. The data set is classed as in vivo. The settings on record: 250, 500 and 1,000 mg/kg orally, dissected after 21 days. How it is done: Acute toxicity tests of the compounds 1d and 2d described in table 1 were carried out. […] As a result, in each administration group, no mouse died whichever compound had been administered.

In a further data set the test system is aortae of guinea pigs. Briefly: Inhibition of vascular contraction caused by angiotensin II using pieces of the aortae of guinea pigs. The conditions noted are these: Cavia porcellus; guinea pig chest aorta, contraction induced by angiotensin II; read-out: Vascular contraction inhibition effect IC50. The data set is classed as cell-based. The protocol:
Male Hartly guinea pigs (350 to 400 g) were contused on the head and sacrificed by allowing their blood to discharge from the arteria carotis communis. Immediately after death, the chest aorta was removed. A spiral sample of width 2 to 3 mm and length 20 to 25 mm was cut from the aorta, and was suspended in 4.5 ml of Krebs-Henseleit (K-H) solution (120 mM NaCl, 4.7 mM KCl, […], 1.2 mM KH2PO4, 2.5 mM CaCl2, 25 mM NaHCO3, and 10 mM glucose) in a Magnus vessel. The K-H solution in the Magnus vessel was maintained at 37° C., and a mixture gas of 95% O2 and 5% CO2 was continuously bubbled through the solution. First, 1 g of initial tension was applied to the sample, which was then left to stand rest for about 30 minutes, and 45 μl of 4M KCl solution was added to the solution to induce contraction. After contraction had stabilized, a washing operation was performed to replace the K-H solution. Then, after the sample was left to stand for 30 minutes, 45 μl of solvent DMSO was added to incubate the sample for 15 minutes, and 45 μl of angiotensin II solution (3×10^−8M) was added to induce contraction. This operation was repeated three times and 100% contraction was used as the average. Subsequently, the sample was stabilized by washing. Then, a 45 μl sample of each test compound prepared for each concentration (3×10^−5M to 10^−7M) using DMSO as a solvent was used to observe the inhibition effect of angiotensin II on vascular contraction by performing the same operation as described above. The contraction reaction was recorded on a recorder (RTA-1100, Japan Photoelectronics) via an equi-scale pressure transducer (TB-651T, Japan Photoelectronics). The angiotensin II inhibition effects of the test compounds were evaluated using the IC50 value.

Where [2] appears, read: 5 min, 5 minutes after administration, read-out: Inhibition effect in the hypertension by angiotensin II, 5 minutes after administration.
[3] abbreviates: 1 h, 60 minutes after administration, read-out: Inhibition effect in the hypertension by angiotensin II, 60 minutes after administration.

Broadly, the IC50 is the concentration needed to halve the response being measured. For `CCCCc1nc(CCCC)n(Cc2ccc(-c3ccccc3/C=C3\NC(=O)CC3=O)cc2)n1` [Compound 1d, 3,5-Dibutyl-1-[2′-[(2,4-dioxopyrrolidine-5(Z)-ylidene)methyl]biphenyl-4-yl]methyl-1H-1,2,4-triazole], the inhibition in vivo at 1 mg/kg in data set [1] (setting [2]) is at least 70%; in data set [1] (setting [3]) it was 30 to 70%. Besides, on angiotensin II receptor, the “Angiotensin II receptor antagonism (in words)” value is on record as “distinct angiotensin II receptor antagonism”. Besides, the IC50 at angiotensin II receptor was determined as 130 nM; in the data set with aortae of guinea pigs it was 1400 nM. Further, the “Findings on dissection at the end of the observation period” value in the data set on male ICR mice is reported as “no abnormality”.

For orientation: melting point means the temperature of the solid-liquid transition. On to `CCCCc1nc(CCc2ccccc2)nn1Cc1ccc(-c2ccccc2/C=C2\NC(=O)CC2=O)cc1` [Compound 1f, 5-Butyl-3-(2-phenylethyl)-1-[2′-[(2,4-dioxopyrrolidine-5(Z)-ylidene)methyl]biphenyl-4-yl]methyl-1H-1,2,4-triazole], for which the melting point lay within 188 to 189 °C. For the same compound, in data set [1] (setting [2]), the inhibition in vivo at 1 mg/kg is 30 to 70%. Further, in data set [1] (setting [3]), the inhibition in vivo at 1 mg/kg was 30 to 70%. The concentration for half-maximal inhibition (IC50) on angiotensin II receptor was 150 nM. Moreover, the IC50 with aortae of guinea pigs worked out at 87900 nM.

Consider `CCCc1nc(CCC)n(Cc2ccc(-c3ccccc3/C=C3\OC(=O)C=C3O)cc2)n1` [Compound 2a, 3,5-Dipropyl-1-[2′-[(4-hydroxy-2(5H)-furanone-5(Z)-ylidene)methyl]biphenyl-4-yl]methyl-1H-1,2,4-triazole], for which the melting point was in the range of 160 to 161 °C. Moreover, the inhibition in vivo at 1 mg/kg in data set [1] (setting [2]) lay in the range of 30 to 70%. Moreover, the inhibition in vivo at 1 mg/kg in data set [1] (setting [3]) is under 10%. In addition, the IC50 on angiotensin II receptor came to 110 nM. The IC50 with aortae of guinea pigs was determined as 16900 nM.

The compound `CCCCc1nc(C2CC2)nn1Cc1ccc(-c2ccccc2/C=C2\OC(=O)C=C2O)cc1` [Compound 2c, 5-Butyl-3-cyclopropyl-1-[2′-[(4-hydroxy-2(5H)-furanone-5(Z)-ylidene)methyl]biphenyl-4-yl]methyl-1H-1,2,4-triazole] returned a melting point of 168 to 170 °C. The inhibition in vivo at 1 mg/kg in data set [1] (setting [2]) was 10 to 30%. For the same compound, the inhibition in vivo at 1 mg/kg in data set [1] (setting [3]) is under 10%. Besides, on angiotensin II receptor, the IC50 was 150 nM. In the data set with aortae of guinea pigs, the IC50 is over 300000 nM.

Consider `CCCCc1nc(CCCC)n(Cc2ccc(-c3ccccc3/C=C3\OC(=O)C=C3O)cc2)n1` [Compound 2d], for which the inhibition in vivo at 1 mg/kg in data set [1] (setting [2]) was 30 to 70%; in data set [1] (setting [3]), 10 to 30%. Moreover, the “Angiotensin II receptor antagonism (in words)” value on angiotensin II receptor was “distinct angiotensin II receptor antagonism”. The IC50 was determined as 46 nM on angiotensin II receptor and 4500 nM in the data set on aortae of guinea pigs. Also, the “Findings on dissection at the end of the observation period” value with male ICR mice is “no abnormality”.

In turn, `CCCCc1nc(-c2ccccc2)nn1Cc1ccc(-c2ccccc2/C=C2\OC(=O)C=C2O)cc1` [Compound 2e, 5-Butyl-3-phenyl-1-[2′-[(4-hydroxy-2(5H)-furanone-5(Z)-ylidene)methyl]biphenyl-4-yl]methyl-1H-1,2,4-triazole] gave a melting point of 188 to 189 °C. Further, the inhibition in vivo at 1 mg/kg in data set [1] (setting [2]) lay in the range of 30 to 70%. Also, the inhibition in vivo at 1 mg/kg in data set [1] (setting [3]) lay within 30 to 70%. The IC50 at angiotensin II receptor was determined as 180 nM. Further, the half-inhibitory concentration (IC50) in the data set on aortae of guinea pigs was determined as 154000 nM.

In the case of `CCCCc1nc(CCc2ccccc2)nn1Cc1ccc(-c2ccccc2/C=C2\OC(=O)C=C2O)cc1` [Compound 2f, 5-Butyl-3-(2-phenylethyl)-1-[2′-[(4-hydroxy-2(5H)-furanone-5(Z)-ylidene)methyl]biphenyl-4-yl]methyl-1H-1,2,4-triazole], the melting point lay in the range of 184 to 185 °C. Further, the inhibition in vivo at 1 mg/kg in data set [1] (setting [2]) fell in the range of 30 to 70%. Besides, the inhibition in vivo at 1 mg/kg in data set [1] (setting [3]) was under 10%. For the same compound, the IC50 on angiotensin II receptor was found to be 11 nM. Further, the IC50 in the data set on aortae of guinea pigs was over 300000 nM.

`CCCCc1nc(-c2ccco2)nn1Cc1ccc(-c2ccccc2/C=C2\OC(=O)C=C2O)cc1` [Compound 2j, 5-Butyl-(furan-2-yl)-1-[2′-[(4-hydroxy-2(5H)-furanone-5(Z)-ylidene)methyl]biphenyl-4-yl]methyl-1H-1,2,4-triazole] returned a melting point of 172 to 173 °C. Also, in data set [1] (setting [2]), the inhibition in vivo at 1 mg/kg is under 10%. Besides, the inhibition in vivo at 1 mg/kg in data set [1] (setting [3]) was under 10%. The IC50 at angiotensin II receptor came to 280 nM. Further, in the data set with aortae of guinea pigs, the concentration for half-maximal inhibition (IC50) is over 300000 nM.

On to `CCCCc1nc(-c2cccs2)nn1Cc1ccc(-c2ccccc2/C=C2\OC(=O)C=C2O)cc1` [Compound 2k, 5-Butyl-3-(thiophene-2-yl)-1-[2′-[(4-hydroxy-2(5H)-furanone-5(Z)-ylidene)methyl]biphenyl-4-yl]methyl-1H-1,2,4-triazole], for which the melting point is 179 to 180 °C. Moreover, in data set [1] (setting [2]), the inhibition in vivo at 1 mg/kg was in the range of 10 to 30%. In data set [1] (setting [3]), the inhibition in vivo at 1 mg/kg is under 10%. For the same compound, at angiotensin II receptor, the IC50 turned out to be 310 nM. Besides, the IC50 in the data set with aortae of guinea pigs was over 300000 nM.
